According to US10322110B2, “Imidazole-based antimicrobial agents” (priority 2014, dated 2019):
Converted amounts (≈) assume the structure as drawn. Read-outs that look alike come from different tables or passages of the source.

Tests used:
[1] = tested on: Staphylococcus aureus MSSA (Newman); assay: broth microdilution MIC assay, Staphylococcus aureus MSSA (Newman); format: cell-based; details: for MIC: Staphylococcus aureus; for Antibacterial activity Staphylococcus aureus (MSSA): MIC100 class score, broth microdilution
[2] = tested on: Staphylococcus aureus MRSA (COL); assay: broth microdilution MIC assay, Staphylococcus aureus MRSA (COL); format: cell-based; details: for MIC: Staphylococcus aureus, MRSA
[3] = tested on: penicillin-, erythromycin- and tetracycline-resistant Streptococcus pneumoniae (ATCC 700677), ARSP; assay: microbe, parasite or virus in culture; format: cell-based
[4] = tested on: Staphylococcus epidermidis (PCI 1200, ATCC12228); assay: broth microdilution MIC assay, Staphylococcus epidermidis; format: cell-based; details: ATCC12228, read-out: Antibacterial activity SE (Staphylococcus epidermidis)
[5] = tested on: Bacillus subtilis (Marburg strain, ATCC6051); assay: microbe, parasite or virus in culture; format: cell-based; details: ATCC6051, read-out: Antibacterial activity BS (Bacillus substilis)
[6] = tested on: Human hepatocytes (HepaRG cells); assay: human cytotoxicity assay in vitro (CellTiter-Glo), hepatocytes; format: cell-based; details: cytotoxicity class
[7] = tested on: Mycobacterium smegmatis (mc(2)155, ATCC700084); assay: broth microdilution MIC assay, Mycobacterium smegmatis; details: MIC activity class
[8] = tested on: Streptococcus pneumoniae (Chester, ATCC49619); assay: broth microdilution MIC assay, Streptococcus pneumoniae; format: cell-based; details: MIC100 class score, 24 h
[9] = 24 h, read-out: Antibacterial activity Staphylococcus aureus (MSSA)
[10] = read-out: Antibacterial activity MSSA (Staphylococcus aureus MSSA)
[11] = read-out: Antibacterial activity MRSA (Staphylococcus aureus MRSA)
[12] = ATCC700677, MIC activity class, read-out: Antibacterial activity ARSP (multi-drug resistant-SP)
[13] = ATCC700677, read-out: Antibacterial activity ARSP (multi-drug resistant-SP)
[14] = MIC100 class score, broth microdilution, 24 h

Row | SMILES | MIC [1, 9] [µg/mL] | MIC [1, 10] [µg/mL] | MIC [2, 11] [µg/mL] | MIC ([2]; MIC100 class score, broth microdilution, 24 h, read-out: Antibacterial activity Staphylococcus aureus (MRSA)) [µg/mL] | MIC [3, 12] [µg/mL] | MIC [4] [µg/mL] | MIC [5] [µg/mL] | cytotoxicity cell line H (hepatocytes) [6] | Antibacterial activity MS (Mycobacterium smegmatis) [7] | Antibacterial activity Streptococcus pneumoniae [8] | MIC [3, 13] [µg/mL] | Antibacterial activity Staphylococcus aureus (MSSA) ([1]; 24 h) | MIC ([2]; 24 h, read-out: Antibacterial activity Staphylococcus aureus (MRSA)) [µg/mL] | Antibacterial activity Staphylococcus aureus (MRSA) [2, 14]
1 | Cc1nc(-c2ccc(-c3ccc(Cl)cc3Cl)o2)[nH]c1-c1ccccc1 [Compound 1] | 1 to 3 (≈ 2.71 to 8.12 µM) | 1 to 3 (≈ 2.71 to 8.12 µM) | 1 to 3 (≈ 2.71 to 8.12 µM) | 1 to 3 (≈ 2.71 to 8.12 µM) | < 1 | 3 to 10 (≈ 8.12 to 27.1 µM) | 3 to 10 (≈ 8.12 to 27.1 µM) | 2 | 2 (MIC100 of 11-201 μg/ml) | – | – | – | – | –
2 | Cc1[nH]c(-c2ccc(-c3ccc(Cl)cc3)s2)nc1-c1ccccc1 [Compound 6] | – | – | – | – | 2 to 5 (≈ 5.7 to 14.3 µM) | – | 11 to 201 (≈ 31.4 to 573 µM) | – | 2 (MIC100 of 11-201 μg/ml) | 3 (MIC100 of 2-5 μg/ml) | – | – | – | –
3 | Cc1[nH]c(-c2ccc(-c3ccccc3F)s2)nc1-c1ccccc1 [Compound 15] | – | – | – | – | – | – | – | – | 2 (MIC100 of 11-201 μg/ml) | 3 (MIC100 of 2-5 μg/ml) | 2 to 5 (≈ 5.98 to 15 µM) | – | – | –
4 | Cc1nc(-c2ccc(-c3ccc(Cl)cc3Cl)o2)[nH]c1-c1ccc(F)cc1 [Compound 16] | – | 1 to 3 (≈ 2.58 to 7.75 µM) | 1 to 3 (≈ 2.58 to 7.75 µM) | – | < 1 | 3 to 10 (≈ 7.75 to 25.8 µM) | 3 to 10 (≈ 7.75 to 25.8 µM) | 3 | – | 3 (MIC100 of 2-5 μg/ml) | – | – | – | –
5 | Cc1nc(-c2ccc(-c3ccccc3OC(F)(F)F)o2)[nH]c1-c1ccccc1Cl [Compound 19] | – | 20 to 50 (≈ 47.8 to 119 µM) | 20 to 50 (≈ 47.8 to 119 µM) | – | – | – | – | 3 | 2 (MIC100 of 11-201 μg/ml) | – | 2 to 5 (≈ 4.78 to 11.9 µM) | – | – | –
6 | Cc1[nH]c(-c2ccc(-c3ccccc3OC(F)(F)F)o2)nc1-c1ccc(F)cc1 [Compound 23, 4-(4-Fluoro-phenyl)-5-methyl-2-[5-(2-trifluoromethoxy-phenyl)-furan-2-yl]-1H-imidazole] | – | 1 to 3 (≈ 2.49 to 7.46 µM) | 3 to 10 (≈ 7.46 to 24.9 µM) | – | < 1 | 20 to 50 (≈ 49.7 to 124 µM) | 1 to 3 (≈ 2.49 to 7.46 µM) | 3 | – | – | – | 3 (MIC100 of 3-10 μg/ml) | – | –
7 | Cc1[nH]c(-c2ccc(-c3ccccc3OC(F)(F)F)o2)nc1-c1ccc(Cl)cc1 [Compound 24] | – | 3 to 10 (≈ 7.16 to 23.9 µM) | 3 to 10 (≈ 7.16 to 23.9 µM) | – | < 1 | 20 to 50 (≈ 47.8 to 119 µM) | 3 to 10 (≈ 7.16 to 23.9 µM) | 2 | – | – | – | 3 (MIC100 of 3-10 μg/ml) | – | –
8 | Cc1[nH]c(-c2ccc(-c3ccccc3OC(F)(F)F)o2)nc1Cc1ccc(Br)cc1 [Compound 30, 4-(4-Bromo-benzyl)-5-methyl-2-[5-(2-trifluoromethoxy-phenyl)-furan-2-yl]-1H-imidazole] | – | 3 to 10 (≈ 6.29 to 21 µM) | 3 to 10 (≈ 6.29 to 21 µM) | – | < 1 | 11 to 201 (≈ 23 to 421 µM) | 3 to 10 (≈ 6.29 to 21 µM) | 3 | – | – | – | 3 (MIC100 of 3-10 μg/ml) | – | –
9 | Cc1nc(-c2ccc(-c3ccc(Cl)c(OC(F)(F)F)c3)o2)[nH]c1-c1ccccc1 [Compound 41] | 3 to 10 (≈ 7.16 to 23.9 µM) | 3 to 10 (≈ 7.16 to 23.9 µM) | 3 to 10 (≈ 7.16 to 23.9 µM) | – | < 1 | 11 to 201 (≈ 26.3 to 480 µM) | 3 to 10 (≈ 7.16 to 23.9 µM) | 2 | – | – | – | – | 3 to 10 (≈ 7.16 to 23.9 µM) | –
10 | Cc1nc(-c2ccc(-c3ccc(Cl)c(OC(F)(F)F)c3)o2)[nH]c1-c1ccc(F)cc1 [Compound 43] | – | 3 to 10 (≈ 6.87 to 22.9 µM) | 11 to 201 (≈ 25.2 to 460 µM) | – | < 1 | 20 to 50 (≈ 45.8 to 114 µM) | 3 to 10 (≈ 6.87 to 22.9 µM) | 3 | – | – | – | 3 (MIC100 of 3-10 μg/ml) | – | 2 (MIC100 of 11-201 μg/ml)
11 | Cc1[nH]c(-c2ccc(-c3ccc(C(F)(F)F)cc3)o2)nc1-c1ccc(Cl)cc1 [Compound 47] | – | 1 to 3 (≈ 2.48 to 7.45 µM) | 3 to 10 (≈ 7.45 to 24.8 µM) | – | < 1 | 3 to 10 (≈ 7.45 to 24.8 µM) | 3 to 10 (≈ 7.45 to 24.8 µM) | – | 3 (MIC100 of 3-10 μg/ml) | – | – | – | – | 3 (MIC100 of 3-10 μg/ml)
12 | Cc1[nH]c(-c2ccc(-c3ccc(OC(F)(F)F)cc3)o2)nc1-c1ccc(Cl)cc1 [Compound 48] | – | 3 to 10 (≈ 7.16 to 23.9 µM) | 3 to 10 (≈ 7.16 to 23.9 µM) | – | < 1 | 11 to 201 (≈ 26.3 to 480 µM) | 3 to 10 (≈ 7.16 to 23.9 µM) | 2 | – | – | – | 3 (MIC100 of 3-10 μg/ml) | – | –
13 | Cc1[nH]c(-c2ccc(-c3ccc(OC(F)(F)F)cc3Cl)o2)nc1-c1ccc(F)cc1 [Compound 51] | – | 11 to 201 (≈ 25.2 to 460 µM) | 20 to 50 (≈ 45.8 to 114 µM) | – | 2 to 5 (≈ 4.58 to 11.4 µM) | 20 to 50 (≈ 45.8 to 114 µM) | 3 to 10 (≈ 6.87 to 22.9 µM) | 3 | – | 3 (MIC100 of 2-5 μg/ml) | – | 2 (MIC100 of 11-201 μg/ml) | – | –
14 | FC(F)(F)Oc1ccccc1-c1ccc(-c2nc(Cl)c(-c3ccccc3)[nH]2)o1 [Compound 64] | – | 3 to 10 (≈ 7.41 to 24.7 µM) | 20 to 50 (≈ 49.4 to 124 µM) | – | 2 to 5 (≈ 4.94 to 12.4 µM) | 20 to 50 (≈ 49.4 to 124 µM) | 20 to 50 (≈ 49.4 to 124 µM) | 3 | – | – | – | 2 (MIC100 of 11-201 μg/ml) | – | –
15 | FC(F)(F)Oc1ccccc1-c1ccc(-c2nc(-c3ccc(Cl)cc3Cl)c[nH]2)o1 [Compound 68] | – | 11 to 201 (≈ 25 to 458 µM) | 11 to 201 (≈ 25 to 458 µM) | – | 2 to 5 (≈ 4.55 to 11.4 µM) | 3 to 10 (≈ 6.83 to 22.8 µM) | 3 to 10 (≈ 6.83 to 22.8 µM) | 2 | – | 2 (MIC100 of 6-10 μg/ml) | – | 2 (MIC100 of 11-201 μg/ml) | – | –
16 | Cc1ccccc1-c1cnc(-c2ccc(-c3ccccc3C(F)(F)F)o2)[nH]1 [Compound 69] | – | 11 to 201 (≈ 29.9 to 546 µM) | – | – | 2 to 5 (≈ 5.43 to 13.6 µM) | – | 20 to 50 (≈ 54.3 to 136 µM) | 2 | 2 (MIC100 of 11-201 μg/ml) | – | – | 3 (MIC100 of 3-10 μg/ml) | – | 2 (MIC100 of 11-201 μg/ml)
